Literature values as cited in patent US10206391B2, “Strobilurin formulations” (priority 2011, dated 2019).
In brackets after ≈: the same amount, converted by molar mass. Where two headings read alike, the source gives them in different places. One block for each compound: values may come before it.

How the values were obtained:
[1] = not given; remark: listed apart in the source
[2] = not given; remark: listed apart in the source
[3] = not given; remark: listed apart in the source

DT50 for aqueous photolysis (water, pH 7): DT50 for aqueous photolysis 30 days, pH7
KOW logP ([1]; pH 6.5): logP = 3.59
Solubility in DMF ([2]; 20° C.): 200 to 250 mg/mL
Solubility in acetone ([2]; 20° C.): 67 to 80 mg/mL
Solubility in acetonitrile ([2]; 20° C.): 50 to 57 mg/mL
Solubility in dichloromethane ([2]; 20° C.): > 250 mg/mL
Solubility in ethyl acetate ([2]; 20° C.): 33 to 40 mg/mL
Solubility in methanol ([2]; 20° C.): 20 to 25 mg/mL
Solubility in toluene ([2]; 20° C.): 20 to 25 mg/mL
Solubility in water ([2]; pH 5.7, 20° C.): 0.0043 mg/mL (≈ 0.0132 mM)
Solubility in water ([2]; pH 8.0, 20° C.): 0.0035 mg/mL (≈ 0.0107 mM)
SMILES: CNC(=O)/C(=N/OC)c1ccccc1COc1cc(C)ccc1C [Dimoxystrobin, (E)-2-(methoxyimino)-N-methyl-2-[α-(2,5-xylyloxy)-o-tolyl]acetamide]
Metabolic stability in plants and xylem systemicity (in words) (plants; plant tissues): metabolically sufficiently stable in plants and show a pronounced xylem systemicity
Solubility in isopropanol ([2]; 20° C.): isopropanol, n-heptane, n-octanol and olive oil all <10 g/l
Solubility in n-heptane ([2]; 20° C.): isopropanol, n-heptane, n-octanol and olive oil all <10 g/l
Solubility in n-octanol (octanol) ([2]; 20° C.): isopropanol, n-heptane, n-octanol and olive oil all <10 g/l
Solubility in olive oil ([2]; 20° C.): isopropanol, n-heptane, n-octanol and olive oil all <10 g/l
Time stable in aqueous solution ([3]; pH 4-9, 50° C.): Stable >30 d in aqueous solution at pH 4-9, 50 °C

SMILES: CC1(c2ccc(Oc3ccccc3)cc2)OC(=O)N(Nc2ccccc2)C1=O (centres unmarked) [Famoxadone, 3-anilino-5-methyl-5-(4-phenoxyphenyl)-1,3-oxazolidine-2,4-dione]
DT50 for aqueous photolysis (pH 5): 4.6 days
DT50 for aqueous photolysis (water, pH 7): 1.9 days
KOW logP ([1]; pH 7): logP = 4.65
DT50 in water with light ([3]; pH 5, 25° C.): 4.6 d (pH 5, 25° C.).
DT50 in water with no light ([3]; pH 5, 25° C.): 41 days
DT50 in water with no light ([3]; pH 7, 25° C.): 2 days
DT50 in water with no light ([3]; pH 9, 25° C.): 0.0646 d (pH 9) (25° C.); in water with light, DT50

SMILES: CO/N=C(/C1=NOCCO1)c1ccccc1Oc1ncnc(Oc2ccccc2Cl)c1F [Fluxastrobin, (E)-{2-[6-(2-chlorophenoxy)-5-fluoropyrimidin-4-yloxy]phenyl}(5,6-dihydro-1,4,2-dioxazin-3-yl)methanone O-methyloxime]
Photolytic stability DT50 (sterile aqueous phosphate buffer, pH 7): DT50 3.8-4.1 days in sterile aqueous phosphate
Photolytic stability DT50 (under solar summer conditions, Phoenix AZ, USA in June): buffer, pH 7; 19- 22 days under solar summer
Metabolic stability in plants and xylem systemicity (in words) (plants; plant tissues): metabolically sufficiently stable in plants and show a pronounced xylem systemicity
KOW logP ([1]; 20° C.): logP = 2.86
Solubility in dichloromethane ([2]; 20° C.): > 250 mg/mL
Solubility in isopropanol ([2]; 20° C.): 6.7 mg/mL (≈ 14.6 mM)
Solubility in n-heptane ([2]; 20° C.): 0.04 mg/mL (≈ 0.0872 mM)
Solubility in xylene ([2]; 20° C.): 38.1 mg/mL (≈ 83 mM)
Solubility in water ([2]; pH 7, 20° C.): 0.00229 mg/mL (≈ 0.00499 mM)
Solubility in water ([2]; unbuffered, 20° C.): 0.00256 mg/mL (≈ 0.00558 mM)
Hydrolysis DT50 ([3]; pH 4, 7 and 9, 50° C.): Hydrolysis DT50 >1 y (pH 4, 7 and 9, 50° C.);

SMILES: CO/N=C(/C(=O)OC)c1ccccc1COc1ccccc1C [Kresoxim-methyl, methyl(E)-methoxyimino[2-(o-tolyloxymethyl)phenyl]acetate]
DT50 for aqueous photolysis (water, pH 7): Photolysis DT50 18.2 days, pH7
Stability (in words) ([3]; pH 5, text wrapped over r19-r20 reads 'relatively stable at pH 5'): stable at pH 5.
Hydrolysis DT50 ([3]; pH 7): 816 h
Hydrolysis DT50 ([3]; pH 9): 7 h

DT50 for aqueous photolysis (water, pH 7): Photolysis DT50 0.8 days, pH7
KOW logP ([1]; 20° C.): logP = 2.36
Solubility in water ([2]; 20° C.): water 80.6 mg/l (20° C.).
SMILES: CNC(=O)/C(=N/OC)c1ccccc1CO/N=C(C)/C(=N/OC)C(/C)=N/OC [Orysastrobin, 2[(E)-methoxyimino]-2-[(3E,6E)-2-{5-[(E)-methoxyimino]-4,6-dimethyl-2,8-dioxa-3,7-diazanona-3,6-dienyl}phenyl]-N-methylacetamide]

SMILES: CO/C=C(/C(=O)OC)c1ccccc1COc1cccc(C(F)(F)F)n1 [Picoxystrobin, methyl(E)-3-methoxy-2-[2-(6-trifluoromethyl-2-pyridyloxymethyl)phenyl]acrylate]
DT50 for aqueous photolysis (water, pH 7): DT50 for aqueous photolysis 21 days, pH7
Metabolic stability in plants and xylem systemicity (in words) (plants; in vivo): metabolically sufficiently stable in plants and show a pronounced xylem systemicity
DT50 ([3]; pH 9, 50° C.): ~15 days

SMILES: COC(=O)N(OC)c1ccccc1COc1ccn(-c2ccc(Cl)cc2)n1 [Pyraclostrobin, methyl N-{2-[1-(4-chlorophenyl)pyrazol-3-yloxymethyl]phenyl}(N-methoxy)carbamate]
DT50 for aqueous photolysis (water, pH 7): Photolysis DT50 in water 1.7 days, pH7
Solubility in acetone ([2]; 20° C.): acetonitrile, dichloromethane and toluene >500 (all g/l
Solubility in acetonitrile ([2]; 20° C.): acetonitrile, dichloromethane and toluene >500 (all g/l
Solubility in dichloromethane ([2]; 20° C.): acetonitrile, dichloromethane and toluene >500 (all g/l
Solubility in ethyl acetate ([2]; 20° C.): acetonitrile, dichloromethane and toluene >500 (all g/l
Solubility in isopropanol ([2]; 20° C.): 30.0 mg/mL (≈ 77.4 mM)
Solubility in methanol ([2]; 20° C.): methanol 100.8, acetone, ethyl acetate, g/l
Solubility in n-heptane ([2]; 20° C.): 3.7 mg/mL (≈ 9.54 mM)
Solubility in n-octanol (octanol) ([2]; 20° C.): 24.2 mg/mL (≈ 62.4 mM)
Solubility in olive oil ([2]; 20° C.): 28.0 mg/mL (≈ 72.2 mM)
Solubility in toluene ([2]; 20° C.): acetonitrile, dichloromethane and toluene >500 (all g/l
Time stable ([3]; pH 5-7, 25° C.): Stable >30 d (pH 5-7, 25° C.).

SMILES: CO/N=C(/C(=O)OC)c1ccccc1CO/N=C(\C)c1cccc(C(F)(F)F)c1 [Trifloxystrobin, methyl(E)-methoxyimino-{(E)-α-[1-(α,α,α-trifluoro-m-tolyl)ethylideneaminooxy]-o-tolyl}acetate]
DT50 for aqueous photolysis (pH 5): 1.1 days
DT50 for aqueous photolysis (water, pH 7): 2.7 days
Stability to hydrolysis (in words) ([3]; pH 5): stable
Hydrolysis DT50 ([3]; pH 7, 20° C.): 11.4 w
Hydrolysis DT50 ([3]; pH 9, 20° C.): 27.1 h
